Data taken from the supplement of paper PMC11451515.

System: P12-Ichikawa
Assay: cell viability relative to DMSO control; higher = less cytotoxic
Details: 48 h
Method in brief: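 Library compounds in DMSO were pin-dosed in an 11-point threefold series (47 μM to 0.79 nM) onto leukemia cells in 1536-well plates (5 μl). Plates held 500 cells/well of NOMO1 or SEM or 1000 cells/well of P12-Ichikawa, each adapted for at least four passages in each medium. Luminescence was read with CellTiter-Glo One after 48 h at 37°C. Viability means the per-plate percentage relative to DMSO wells, using cell-free wells as background.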

[1] = HPLM + 10% dialyzed FBS, 0.000781 µM
[2] = HPLM + 10% dialyzed FBS, 0.00234 µM
[3] = HPLM + 10% dialyzed FBS, 0.00702 µM
[4] = HPLM + 10% dialyzed FBS, 0.0211 µM
[5] = HPLM + 10% dialyzed FBS, 0.0632 µM
[6] = HPLM + 10% dialyzed FBS, 0.19 µM
[7] = HPLM + 10% dialyzed FBS, 0.569 µM
[8] = HPLM + 10% dialyzed FBS, 1.71 µM
[9] = HPLM + 10% dialyzed FBS, 5.12 µM
[10] = HPLM + 10% dialyzed FBS, 15.4 µM
[11] = HPLM + 10% dialyzed FBS, 46.1 µM
[12] = RPMI 5 mM glucose + 10% FBS, 0.000781 µM
[13] = RPMI 5 mM glucose + 10% FBS, 0.00234 µM
[14] = RPMI 5 mM glucose + 10% FBS, 0.00702 µM
[15] = RPMI 5 mM glucose + 10% FBS, 0.0211 µM
[16] = RPMI 5 mM glucose + 10% FBS, 0.0632 µM
[17] = RPMI 5 mM glucose + 10% FBS, 0.19 µM
[18] = RPMI 5 mM glucose + 10% FBS, 0.569 µM
[19] = RPMI 5 mM glucose + 10% FBS, 1.71 µM
[20] = RPMI 5 mM glucose + 10% FBS, 5.12 µM
[21] = RPMI 5 mM glucose + 10% FBS, 15.4 µM
[22] = RPMI 5 mM glucose + 10% FBS, 46.1 µM
[23] = RPMI 5 mM glucose + 10% dialyzed FBS, 0.000781 µM
[24] = RPMI 5 mM glucose + 10% dialyzed FBS, 0.00234 µM
[25] = RPMI 5 mM glucose + 10% dialyzed FBS, 0.00702 µM
[26] = RPMI 5 mM glucose + 10% dialyzed FBS, 0.0211 µM
[27] = RPMI 5 mM glucose + 10% dialyzed FBS, 0.0632 µM
[28] = RPMI 5 mM glucose + 10% dialyzed FBS, 0.19 µM
[29] = RPMI 5 mM glucose + 10% dialyzed FBS, 0.569 µM
[30] = RPMI 5 mM glucose + 10% dialyzed FBS, 1.71 µM
[31] = RPMI 5 mM glucose + 10% dialyzed FBS, 5.12 µM
[32] = RPMI 5 mM glucose + 10% dialyzed FBS, 15.4 µM
[33] = RPMI 5 mM glucose + 10% dialyzed FBS, 46.1 µM

SMILES	cell viability [1]	cell viability [2]	cell viability [3]	cell viability [4]	cell viability [5]	cell viability [6]	cell viability [7]	cell viability [8]	cell viability [9]	cell viability [10]	cell viability [11]	cell viability [12]	cell viability [13]	cell viability [14]	cell viability [15]	cell viability [16]	cell viability [17]	cell viability [18]	cell viability [19]	cell viability [20]	cell viability [21]	cell viability [22]	cell viability [23]	cell viability [24]	cell viability [25]	cell viability [26]	cell viability [27]	cell viability [28]	cell viability [29]	cell viability [30]	cell viability [31]	cell viability [32]	cell viability [33]
COC1=CC=C(C=C1)/C2=C(O)/C(=O)C3=C(O)C=C(O)C(=C3O2)CC=C(C)C	115%	115%	115%	117%	121%	122%	121%	119%	113%	87.9%	122%	108%	111%	105%	110%	108%	115%	114%	120%	123%	67%	121%	118%	110%	122%	116%	127%	115%	125%	128%	117%	95.8%	118%
CCc1ccc(OCc2ccccc2C(=O)Nc2ccc3nc(C)cc(N)c3c2)cc1	95.7%	107%	110%	114%	118%	116%	113%	121%	110%	6.84%	4.54%	88.2%	107%	112%	113%	108%	114%	118%	123%	108%	41.3%	4.15%	89.3%	103%	108%	111%	104%	110%	112%	121%	103%	47.5%	4.84%
CC(C)(N)c1ccc(-c2nc3ccccc3nc2-c2ccccc2)cc1	110%	114%	108%	65.8%	23.2%	10.3%	7.18%	5.6%	5.46%	4.51%	4.37%	96.3%	120%	109%	111%	84.4%	18.8%	10.2%	6.88%	6.89%	4.41%	3.11%	108%	117%	111%	114%	68.8%	22.3%	13.9%	8.23%	7.24%	7.26%	4.8%
COc1ccc(F)c(F)c1C(=O)c1cnc(NC2CCN([S+](C)(=O)[O-])CC2)nc1N	111%	116%	114%	115%	118%	112%	87.4%	77.6%	86%	67.6%	3.92%	113%	114%	126%	116%	116%	117%	78.3%	72.2%	63.7%	43.2%	4.54%	114%	121%	116%	127%	116%	113%	86.8%	78.2%	58.4%	45.9%	5.54%
O=C1NC(=O)/C(=C/c2ccc3nccnc3c2)S1	111%	111%	117%	107%	115%	122%	102%	116%	103%	97.5%	99.7%	110%	112%	119%	114%	115%	109%	98.7%	106%	95.2%	95.9%	91.4%	110%	111%	126%	123%	114%	113%	115%	102%	96.2%	104%	97.1%
Oc1cc(-c2nc(-c3ccccc3)[nH]c2-c2ccncc2)ccc1Cl	109%	110%	110%	115%	118%	117%	106%	101%	92.7%	82.9%	65.7%	122%	111%	117%	122%	119%	118%	111%	113%	84.7%	74.5%	45.2%	–	–	–	–	–	–	–	–	–	–	–
